Test results published in patent US20040005997A1, “Methods for identifying compounds for regulating muscle mass of function using amylin receptors” (The Procter & Gamble Company, priority 2002, published 2004).

Key:
[1] = tested on: mouse sciatic nerve denervation atrophy model; test: mouse sciatic nerve denervation atrophy model; assay type: in vivo
Experimental: Legend: A—non-denervated medial gastrocnemius muscle from mice treated with physiological saline (non-atrophied control); B—denervated medial gastrocnemius muscle from mice treated with physiological saline (atrophied control); C—amylin (0.03 mg/kg)+theophylline; D—amylin (0.1 mg/kg)+theophylline; E—amylin (0.3 mg/kg)+theophylline. * —p≦0.05 compared to saline. Following denervation of the right sciatic nerve, male mice were injected subcutaneously in the midscapular region twice daily with amylin, at the doses indicated above or vehicle control (physiological saline) for nine days. […] On day nine, the medial gastrocnemius muscle was removed and weighed to determine the degree of atrophy.
The sciatic nerve denervation atrophy model involves anesthetizing the animal followed by the surgical removal of a short segment of either the right or left sciatic nerve, e.g., in mice the sciatic nerve is isolated approximately at the midpoint along the femur and a 3-5 mm segment is removed. This denervates the lower hind limb musculature resulting in atrophy of these muscles. Typically, innervation to the biceps femoris is left intact to provide satisfactory motion of the knee for virtually normal ambulation. […] The extent of atrophy in the affected muscles is analyzed, for example, by measuring muscle mass, muscle cross-sectional area, myofiber cross-sectional area or contractile protein content.

[2] = tested on: mouse glucocorticoid-induced atrophy model; test: mouse glucocorticoid-induced atrophy model; assay type: in vivo
Experimental: Legend: A—water only with no dexamethasone included in drinking water (non-atrophied control); B—water+dexamethasone (atrophied control); C—amylin (0.3 mg/kg/d)+theophylline+dexamethasone; D—amylin (1.0 mg/kg/d)+theophylline+dexamethasone; *—p≦0.05 compared to water; #—p≦0.05 compared to water+dexamethasone. Following the addition of the glucocorticoid, dexamethasone, to the drinking water (1.2 mg/kg/d), male mice were injected subcutaneously in the midscapular region twice daily with amylin, at the doses indicated above or vehicle control (physiological saline) for nine days. Amylin was co-administered with twice daily intra-peritoneal dosing of the phosphodiesterase inhibitor theophylline (30 mg/kg). Nine days following the initiation of dosing amylin, the medial gastrocnemius and tibialis anterior muscles were removed and weighed to determine the degree of atrophy.
The glucocorticoid-induced atrophy model involves the administration of a glucocorticoid to the test animal, e.g., 1.2 mg/kg/day of dexamethasone in the drinking water. Typically, in untreated animals, skeletal muscle mass is reduced 30-50% following ten days of dexamethasone administration. Concomitantly with, or following glucocorticoid administration, test compounds are administered e.g., by injection or by continuous infusion to determine their effect on glucocorticoid-induced skeletal muscle atrophy. At various times following glucocorticoid administration, the extent of atrophy in the affected muscles is analyzed as described above for the denervation model.

[3] = tested on: leg casting disuse atrophy model; test: leg casting disuse atrophy model; assay type: in vivo, mouse
Experimental: Legend: A—physiological saline (control); B—amylin (0.1 mg/kg)+theophylline; C—amylin (0.3 mg/kg)+theophylline; D—amylin (1.0 mg/kg)+theophylline; *—p≦0.05 compared to saline. Following casting of the right hind leg, male mice were injected subcutaneously in the midscapular region twice daily, with amylin or vehicle control (physiological saline) for ten days at the daily delivered dose indicated. Amylin was co-administered with twice daily intra-peritoneal dosing of the phosphodiesterase inhibitor theophylline (30 mg/kg). On day ten, the medial gastrocnemius and tibialis anterior muscles were removed and weighed to determine the degree of atrophy.
The leg casting disuse atrophy model involves casting one hind leg of an animal from the knee down through the foot. Typically, muscle mass is reduced 20-40% after ten days of casting. Following casting, test compounds are administered by injection or by continuous infusion via implantation of an osmotic minipump (e.g., Alzet, Palo Alto, Calif.) to determine their effect on leg casting induced skeletal muscle atrophy. At various times following leg casting, the extent of atrophy in the affected muscles is analyzed as described above for the denervation model.

[4] = tested on: human subject in a comatose state; test: prophylactic treatment of skeletal muscle atrophy in comatose state (Example 13); assay type: in vivo; settings: human 60 kg, 5 ml of 12 mg/ml amylin stock in 500 ml saline, slow i.v. infusion once each day
Experimental: A human subject weighing 60 kg is admitted to the hospital in a comatose state. The subject is treated by this method to prevent atrophy of the skeletal muscle of the entire body due to disuse in the comatose state. Specifically, once each day while in the coma, the subject is administered, via slow intravenous infusion, approximately 500 ml of an aqueous solution that is prepared by addition of 5 ml of the following stock solution to 500 ml of sterile saline: […]

Row | Compound | effect on skeletal muscle atrophy, theophylline administered alone ([1]; denervation model, theophylline alone) | effect on skeletal muscle atrophy, theophylline administered alone ([2]; glucocorticoid-induced model, theophylline alone) | effect on skeletal muscle atrophy, theophylline administered alone ([3]; casting disuse model, theophylline alone) | denervation-induced atrophy of the medial gastrocnemius muscle (muscle weight) ([1]; male mice, amylin 0.03, 0.1, 0.3 mg/kg s.c. twice daily + theophylline 30 mg/kg i.p. twice daily, nine days, FIG. 1) | glucocorticoid-induced atrophy of the tibialis anterior muscle (muscle weight) ([2]; male mice, dexamethasone 1.2 mg/kg/d in drinking water, amylin 0.3, 1.0 mg/kg/d s.c. twice daily + theophylline 30 mg/kg i.p., nine days, FIG. 2A) | glucocorticoid-induced atrophy of the medial gastrocnemius muscle (muscle weight) ([2]; male mice, dexamethasone 1.2 mg/kg/d in drinking water, amylin 0.3, 1.0 mg/kg/d s.c. twice daily + theophylline 30 mg/kg i.p., nine days, FIG. 2B) | disuse-induced (casting) atrophy of the tibialis anterior muscle (muscle weight) ([3]; male mice, casted right hind leg, amylin 0.1, 0.3, 1.0 mg/kg s.c. twice daily + theophylline 30 mg/kg i.p., ten days, FIG. 3A) | disuse-induced (casting) atrophy of the medial gastrocnemius muscle (muscle weight) ([3]; male mice, casted right hind leg, amylin 0.1, 0.3, 1.0 mg/kg s.c. twice daily + theophylline 30 mg/kg i.p., ten days, FIG. 3B) | hypertrophy of the tibialis anterior muscle of the non-casted leg ([3]; male mice, non-casted (normal) leg, amylin 0.1, 0.3, 1.0 mg/kg s.c. twice daily + theophylline 30 mg/kg i.p., ten days, FIG. 3A) | hypertrophy of the medial gastrocnemius muscle of the non-casted leg ([3]; male mice, non-casted (normal) leg, amylin 0.1, 0.3, 1.0 mg/kg s.c. twice daily + theophylline 30 mg/kg i.p., ten days, FIG. 3B) | skeletal muscle mass and function [4]
1 | Cn1c(=O)c2[nH]cnc2n(C)c1=O [Theophylline, theophylline] | no effect | no effect | no effect |  |  |  |  |  |  |  | 
2 | amylin (KCNTATCATQRLANFLVHSSNNFGAILSSTNVGSNTY; Islet amyloid polypeptide; UniProt P10997 34-70, looked up) [a 37 amino acid peptide; the ligand/agonist of the amylin receptors] |  |  |  | inhibits denervation-induced atrophy | inhibits glucocorticoid-induced muscle atrophy | inhibits glucocorticoid-induced muscle atrophy | inhibits disuse-induced atrophy | inhibits disuse-induced atrophy | statistically significant hypertrophy | statistically significant hypertrophy | measurable preservation of skeletal muscle mass and function
